Measured values taken from the Kinase Knowledgebase extract (Sharma et al. 2016).

Target: CDK2 (human) (UniProt P24941)
Assay: Enzyme Assay

| SMILES | IC50 [µM] |
| --- | --- |
| NS(=O)(=O)c1ccc(NC(=O)c2ccc(C(=O)Nc3ccc(-n4cncn4)cc3)s2)cc1 | ≥ 40 |
| O=C(Nc1ccc(-n2cncn2)cc1)c1ccc(C(=O)NC2CCNCC2)s1 | ≥ 40 |
| O=C(NC[C@H](O)c1ccccc1)c1ccc(C(=O)Nc2ccc(-n3cncn3)cc2)s1 | ≥ 40 |
| COc1ccc(NC(=O)c2ccc(C(=O)Nc3ccc(C#N)cc3)s2)c(C)c1 | ≥ 40 |
| O=C(Nc1ccc(-n2cncn2)c(F)c1)c1ccc(C(=O)Nc2ccccc2OCc2ccncc2)s1 | ≥ 40 |
| COc1ccc(NC(=O)c2ccc(C(=O)Nc3cccc(-c4cnco4)c3)s2)c(C)c1 | ≥ 40 |
| Nc1ccc(CNC(=O)c2ccc(C(=O)Nc3ccc(-n4cncn4)cc3)s2)cn1 | ≥ 40 |
| C[C@@H](NC(=O)c1ccc(C(=O)Nc2ccc(-n3cncn3)cc2)s1)C1CCCCC1 | ≥ 40 |

Results, then the compound that gave them:

| IC50 [µM] | SMILES |
| --- | --- |
| ≥ 40 | COc1ccc(NC(=O)c2ccc(C(=O)Nc3ccc4c(c3)OCO4)s2)c(C)c1 |
| ≥ 40 | COc1ccccc1NC(=O)c1ccc(C(=O)Nc2ccc(-n3cncn3)cc2)s1 |
| ≤ 1 | COc1ccc(C(=O)Nc2ccc(C(=O)Nc3ccc(-n4cncn4)c(F)c3)s2)c(C)c1 |
| ≤ 1 | CN(C(=O)c1ccc(C(=O)Nc2ccc(-n3cncn3)cc2)s1)C1CCCCC1 |
| ≥ 40 | O=C(Nc1ccc(-n2cncn2)cc1)c1ccc(C(=O)Nc2ccc3c(c2)OCO3)s1 |
| ≤ 1 | O=C(Nc1ccc(-n2cncn2)cc1)c1ccc(C(=O)NC2CCCCC2)o1 |
| ≤ 1 | O=C(Nc1ccc(-n2cncn2)cc1)c1ccc(NC(=O)C2CCCCC2)s1 |
| ≤ 1 | Cc1cc(CN2CCOCC2)ccc1NC(=O)c1ccc(C(=O)Nc2ccc(-n3cncn3)cc2)s1 |
| ≥ 40 | O=C(Nc1ccc(-n2cncn2)cc1)c1ccc(C(=O)NC2CCCCC2)s1 |
| ≥ 40 | COc1ccc(NC(=O)c2ccc(C(=O)Nc3ccc4nccnc4c3)s2)c(C)c1 |
